Measured values reported in patent US20230265425A1, “lncRNA-REGULATED GENE EXPRESSION SYSTEM” (MEMORIAL SLOAN KETTERING CANCER CENTER, priority 2020, published 2023).
Like-named read-outs stand apart in the source and are kept apart here.

Assays:
pho1 mRNA = assay: microbe, parasite or virus in culture; conditions: for fold induction at 15 µM: Schizosaccharomyces pombe
Experimental: Total RNA prepared from harvested samples was analyzed by reverse transcription primer extension using a mixture of radiolabeled primers complementary to the pho1 (top panel) or the act1 (bottom panel) mRNAs. The reaction products were resolved by denaturing urea-PAGE and visualized by autoradiography. The images shown in the top and bottom panels are from a single exposure of one gel. For conciseness of the figure, the intervening lanes of the gel were cropped (represented by the thin line separating the 3 and 10-hour samples). The positions and sizes (in nucleotides) of DNA markers are indicated on the left. Fold-induction reflects the ratio of the act1-normalizedpho1 signal at the indicated time to time-0.
RNA analysis. Total RNA was extracted via the hot phenol method (Köhrer K. and Domdey H., Method Enzymol: 398-405 (1991), which is hereby incorporated by reference) from 3 A600 units of harvested yeast cells. For analysis of specific transcripts by primer extension, aliquots (5 μg) of total RNA were templated for M-MuLV reverse transcriptase-catalyzed extensions of 5′ 32P-labeled oligodeoxynucleotide primers complementary to the phot and actl mRNAs in one reaction mix. The primer sequence for act1 was, 5′-[…] (SEQ ID NO: 12), and for pho1, 5′-[…] (SEQ ID NO: 13). The primer extension reactions were performed as described by Schwer B., et al., Nucleic Acids Res 26: 2050-2057 (1998), which is hereby incorporated by reference, and the products were analyzed by electrophoresis of the reaction mixtures through a 22-cm 8% polyacrylamide gel containing 7 M urea in 80 mM Tris-borate, 1.2 mM EDTA. The ^32P-labeled primer extension products were visualized by autoradiography of the dried gel. Quantification of pho1 and act1 mRNA levels was done by scanning the dried gel with a phosphorimager and analyzing the data in ImageQuant software.
Pho1 acid phosphatase activity in pho1Δ pho4Δ A cells bearing the pTIN pho1 plasmid was determined as a function of time after addition of thiamine (FIG. 2A). […] To gauge the level of phol mRNA, primer extension analysis using a pho1-specific radiolabeled primer for reverse-transcription was used, in parallel with an actin gene-specific primer as a control.

Pho1 acid phosphatase = assay: Acid phosphatase activity assay of plasmid-bearing pho4Δ pho1Δ cells; conditions: for Pho1 activity, % of the level attained with 15 μM thiamine: pTIN-pho1 cells
Experimental: Acid phosphatase activity assay. Aliquots of exponentially growing cultures were harvested, washed with water, and re-suspended in water. To quantify acid phosphatase activity, reaction mixtures (200 μl) containing 100 mM sodium acetate (pH 4.2), 10 mM p-nitrophenyl phosphate (NEB), and cells (ranging from 0.01 to 0.1 A600 units) were incubated for 5 min at 30° C. The reactions were quenched by addition of 1 ml of 1 M sodium carbonate; the cells were removed by centrifugation and the absorbance of the supernatant was measured at 410 nm. Acid phosphatase activity is expressed as the ratio of A410 (p-nitrophenol production) to A600 (cells). The data are averages (±SEM) of at least three assays using cells from three independent cultures.
To assay the activity of this promoter system, pho1 was used as the reporter gene driven by the tgp1 promoter (FIG. 1A). Cell surface-associated Pho1 activity is readily assayable colorimetrically via the conversion ofp-nitrophenylphosphate to p-nitrophenol. The pho1 gene was cloned downstream of the tgp1 5′ UTR in the pTIN vector with its native 3′ flanking DNA to yield the pTIN-pho1 plasmid (FIG. 1A). To test background acid phosphatase levels, a promoter-less pTIN pho1 vector was constructed that lacked the DNA segment spanning the regulatory nmt1-promoternc·tgp1·tgp1 promoter region as well as the tgp1 5′ UTR and only contained the pho1 ORF. These plasmids were introduced into a strain in which the chromosomal pho1 and pho4 genes encoding the cell-surface acid phosphatases Pho1 and Pho4 were deleted. Plasmid-bearing pho1Δ pho4Δ cells were grown to mid-log phase in Leu^− PMG medium without thiamine and subsequently diluted and grown in Leu^− PMG medium with or without 15 μM thiamine. Pho1 acid phosphatase activity was measured by incubating dilutions of cells with p-nitrophenylphosphate and measuring its conversion to p-nitrophenol for 5 min at 30° C. The amount of product formed (within the linear range of detection) was normalized to cell density and is plotted on the y-axis in FIG. 1B.

## Cc1ncc(C[n+]2csc(CCO)c2C)c(N)n1 [thiamine]
pho1 mRNA; 0.5 h, read-out: pho1 mRNA fold induction (act1-normalized, vs time-0)
  fold induction at 15 µM: 25
pho1 mRNA; 1 h, read-out: pho1 mRNA maximum fold induction
  fold induction at 15 µM: 61
pho1 mRNA; pTIN system
  transcriptional induction by the addition of thiamine (dynamic range of pTIN system): ≤ 60 fold
pho1 mRNA; pTIN system, thiamine induction
  time after induction at which target mRNA levels reach peak: ≤ 1 h
pho1 mRNA; pTIN-pho1 cells, all times assayed after 1 hour
  pho1 mRNA level, fold higher than the uninduced state: approximately 60 fold
Pho1 acid phosphatase; Schizosaccharomyces pombe, read-out: dose of half maximal response (EC50) of Pho1 activity
  EC50: 69 ± 5 nM
Pho1 acid phosphatase; Schizosaccharomyces pombe, read-out: fold induction of Pho1 activity
  fold induction at 15 µM: 59
Pho1 acid phosphatase; pTIN pho1 cells after addition of 15 μM thiamine
  rate of Pho1 activity increase between 7 and 11 hours, % of the initial rate (1 to 7 hours): 58%
Pho1 acid phosphatase; pTIN pho1 cells, 15 μM thiamine vs thiamine-free medium, 21 hours
  fold increase in acid phosphatase activity: 58 fold
Pho1 acid phosphatase; pTIN pho1 cells, 23 hours after addition of 15 μM thiamine
  fold increase in Pho1 level over the uninduced state: 53 fold
Pho1 acid phosphatase; 0.01 μM thiamine
  Pho1 activity, % of the level attained with 15 μM thiamine: 8%
Pho1 acid phosphatase; 0.025 μM thiamine
  Pho1 activity, % of the level attained with 15 μM thiamine: 16%
Pho1 acid phosphatase; 0.05 μM thiamine
  Pho1 activity, % of the level attained with 15 μM thiamine: 33%
Pho1 acid phosphatase; 0.075 μM thiamine
  Pho1 activity, % of the level attained with 15 μM thiamine: 54%
Pho1 acid phosphatase; 0.1 μM thiamine
  Pho1 activity, % of the level attained with 15 μM thiamine: 73%
Pho1 acid phosphatase; 0.3 μM thiamine
  Pho1 activity, % of the level attained with 15 μM thiamine: 93%
Pho1 acid phosphatase; 3 μM thiamine
  Pho1 activity, % of the level attained with 15 μM thiamine: 96%
Pho1 acid phosphatase; pho1Δ pho4Δ cells bearing pTIN7m pho1, 22 hours
  fold increase in Pho1 activity on addition of thiamine: 172 fold
Pho1 acid phosphatase; pho1Δ pho4Δ cells bearing pTIN-pho1
  thiamine concentration at which induction was saturated: ≥ 0.3 µM
